Earlier results as cited in patent US20210145841A1, “ENHANCEMENT OF DELIVERY OF LIPOPHILIC ACTIVE AGENTS ACROSS THE BLOOD-BRAIN BARRIER AND METHODS FOR TREATING CENTRAL NERVOUS SYSTEM DISORDERS” (POVIVA CORP., priority 2018, published 2021).

Details: in vivo

human pulmonary uptake: 60%
SMILES: CC1=CC[C@H]2C[C@@H]1C2(C)C [α-Pinene, (1S,5S)-2,6,6-Trimethylbicyclo[3.1.1]hept-2-ene]
